Assay results published in PMC7012011, “In vitro inhibitory effects of dihydromyricetin on human liver cytochrome P450 enzymes” (Pharmaceutical Biology, 2017).

Columns and labels:
CYP1A2 = molecular target: T1, CYP1A2 (Homo sapiens, UniProt P05177); assay: CYP1A2 inhibition, phenacetin O-deethylation in pooled HLMs; format: in vitro ADME; conditions: DHM 100 μM
T1 construct: from tissue; host or cells: pooled human liver microsomes
T1 sequence (P05177 1-516): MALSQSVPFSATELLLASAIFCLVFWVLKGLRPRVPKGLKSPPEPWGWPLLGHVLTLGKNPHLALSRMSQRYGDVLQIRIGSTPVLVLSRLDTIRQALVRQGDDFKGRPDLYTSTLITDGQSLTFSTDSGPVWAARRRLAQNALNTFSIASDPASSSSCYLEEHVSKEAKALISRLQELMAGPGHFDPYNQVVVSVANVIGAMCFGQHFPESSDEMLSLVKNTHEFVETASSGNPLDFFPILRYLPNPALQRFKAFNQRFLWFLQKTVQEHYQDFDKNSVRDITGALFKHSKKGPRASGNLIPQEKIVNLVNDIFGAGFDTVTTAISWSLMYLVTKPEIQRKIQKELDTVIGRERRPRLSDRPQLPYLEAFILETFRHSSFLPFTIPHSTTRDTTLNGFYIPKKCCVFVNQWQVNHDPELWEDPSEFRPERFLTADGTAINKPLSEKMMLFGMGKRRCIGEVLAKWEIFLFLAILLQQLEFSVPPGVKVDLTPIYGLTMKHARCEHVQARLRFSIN
Experimental: (§1) All incubations were performed in triplicate, and the mean values were utilized. The typical incubation systems contained 100 mM potassium phosphate buffer (pH 7.4), NADPH-generating system (1 mM NADP^+, 10 mM glucose-6-phosphate, 1 U/mL of glucose-6-phosphate dehydrogenase, and 4 mM MgCl2), the appropriate concentration of HLM, a corresponding probe substrate and DHM (or positive inhibitor for different probe reactions) in a final volume of 200 μL.
(§2) The concentration of DHM was 100 μM, and the positive inhibitor concentrations were as follows: 10 μM furafylline for CYP1A2, 1 μM ketoconazole for CYP3A4, 10 μM tranylcypromine for CYP2A6, 50 μM clomethiazole for CYP2E1, 10 μM quinidine for CYP2D6, 10 μM sulphaphenazole for CYP2C9, 50 μM tranylcypromine for CYP2C19 and 5 μM montelukast for CYP2C8. Probe substrates, positive inhibitors (except for dextromethorphan and quinidine which were dissolved in water) and DHM were dissolved in methanol, with a final concentration of 1% (v/v), and 1% neat methanol was added to the incubations without inhibitor. […] The instrument used in this study were Agilent 1260 series instrument with DAD and FLD detector (Agilent Technologies, Palo Alto, CA), and the quantitative assay for the corresponding metabolites was performed as previously reported by us (Zhang et al. [2016]). […]

CYP3A4 [1] = molecular target: T2, CYP3A4 (Homo sapiens, UniProt P08684); assay: CYP3A4 inhibition, testosterone 6β-hydroxylation in pooled HLMs; format: in vitro ADME
T2 construct: CYP3A4 catalyzed reactions (testosterone 6β-hydroxylation) in pooled HLM; from tissue; host or cells: pooled human liver microsomes
Experimental: as §1
(§3) The concentration of DHM was 100 μM, and the positive inhibitor concentrations were as follows: 10 μM furafylline for CYP1A2, 1 μM ketoconazole for CYP3A4, 10 μM tranylcypromine for CYP2A6, 50 μM clomethiazole for CYP2E1, 10 μM quinidine for CYP2D6, 10 μM sulphaphenazole for CYP2C9, 50 μM tranylcypromine for CYP2C19 and 5 μM montelukast for CYP2C8. Probe substrates, positive inhibitors (except for dextromethorphan and quinidine which were dissolved in water) and DHM were dissolved in methanol, with a final concentration of 1% (v/v), and 1% neat methanol was added to the incubations without inhibitor. There was a 3-min preincubation period (at 37 °C) before the reaction was initiated by adding a NADPH-generating system. The reaction was terminated by adding a 100 μL acetonitrile (10% trichloroacetic acid for CYP2A6) internal standard mix, and the solution was placed on ice. The mixture was centrifuged at 12,000 rpm for 10 min, and an aliquot (50 μL) of supernatant was transferred for HPLC analysis. The instrument used in this study were Agilent 1260 series instrument with DAD and FLD detector (Agilent Technologies, Palo Alto, CA), and the quantitative assay for the corresponding metabolites was performed as previously reported by us (Zhang et al. [2016]).
(§4) A 100 μM DHM was used to initially screen for its direct inhibitory effects toward different human CYP isoforms. […] The residual activity of the CYP isoforms were measured by adding different concentrations of DHM (0–100 μM), and then the IC50 values were calculated. […]
(§5) The enzyme kinetic parameters for the probe reaction were estimated from the best fit line using least-squares linear regression of the inverse substrate concentration versus the inverse velocity (Lineweaver–Burk plots), and the mean values were used to calculate Vmax and Km. Inhibition data from the experiments that were conducted using multiple compound concentrations were represented by Dixon plots, and inhibition constant (Ki) values were calculated using non-linear regression according to the following equation: v=(VmaxS)/(Km(1+I/Ki)+S), where I is the concentration of the compound, Ki is the inhibition constant, S is the concentration of the substrate and Km is the substrate concentration at half the maximum velocity (Vmax) of the reaction. […]

CYP2A6 = molecular target: T3, CYP2A6 (Homo sapiens, UniProt P11509); assay: CYP2A6 inhibition, coumarin 7-hydroxylation in pooled HLMs; format: in vitro ADME; conditions: DHM 100 μM
T3 construct: from tissue; host or cells: pooled human liver microsomes
T3 sequence (P11509 1-494): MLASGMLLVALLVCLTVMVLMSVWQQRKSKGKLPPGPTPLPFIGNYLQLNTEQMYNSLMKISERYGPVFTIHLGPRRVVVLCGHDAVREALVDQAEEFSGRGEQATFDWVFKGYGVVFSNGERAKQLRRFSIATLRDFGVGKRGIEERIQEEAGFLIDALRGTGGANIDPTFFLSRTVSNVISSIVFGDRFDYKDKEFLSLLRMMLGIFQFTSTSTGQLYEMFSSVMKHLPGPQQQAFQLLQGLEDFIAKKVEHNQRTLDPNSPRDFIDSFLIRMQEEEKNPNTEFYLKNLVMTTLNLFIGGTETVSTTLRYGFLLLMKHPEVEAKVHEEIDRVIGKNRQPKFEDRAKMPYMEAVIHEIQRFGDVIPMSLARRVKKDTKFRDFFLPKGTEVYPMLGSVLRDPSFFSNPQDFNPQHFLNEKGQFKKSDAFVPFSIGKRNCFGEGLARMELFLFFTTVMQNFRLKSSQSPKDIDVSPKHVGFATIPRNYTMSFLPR
Experimental: as §1, §2

CYP2E1 [2] = molecular target: T4, CYP2E1 (Homo sapiens, UniProt P05181); assay: CYP2E1 inhibition, chlorzoxazone 6-hydroxylation in pooled HLMs; format: in vitro ADME
T4 construct: CYP2E1 catalyzed reactions (chlorzoxazone 6-hydroxylation) in pooled HLM; from tissue; host or cells: pooled human liver microsomes

CYP2D6 [3] = molecular target: T5, CYP2D6 (Homo sapiens, UniProt P10635); assay: CYP2D6 inhibition, dextromethorphan O-demethylation in pooled HLMs; format: in vitro ADME
T5 construct: CYP2D6 catalyzed reactions (dextromethorphan O-demethylation) in pooled HLM; from tissue; host or cells: pooled human liver microsomes
Experimental: as §1, §3, §4, §5

CYP2C9 = molecular target: T6, CYP2C9 (Homo sapiens, UniProt P11712); assay: CYP2C9 inhibition, diclofenac 4'-hydroxylation in pooled HLMs; format: in vitro ADME; conditions: DHM 100 μM
T6 construct: from tissue; host or cells: pooled human liver microsomes
Experimental: as §1, §2

CYP2C19 = molecular target: T7, CYP2C19 (Homo sapiens, UniProt P33261); assay: CYP2C19 inhibition, S-mephenytoin 4-hydroxylation in pooled HLMs; format: in vitro ADME; conditions: DHM 100 μM
T7 construct: from tissue; host or cells: pooled human liver microsomes
Experimental: as §1, §2

CYP2C8 = molecular target: T8, CYP2C8 (Homo sapiens, UniProt P10632); assay: CYP2C8 inhibition, paclitaxel 6α-hydroxylation in pooled HLMs; format: in vitro ADME; conditions: DHM 100 μM
T8 construct: from tissue; host or cells: pooled human liver microsomes
T8 sequence (P10632 1-490): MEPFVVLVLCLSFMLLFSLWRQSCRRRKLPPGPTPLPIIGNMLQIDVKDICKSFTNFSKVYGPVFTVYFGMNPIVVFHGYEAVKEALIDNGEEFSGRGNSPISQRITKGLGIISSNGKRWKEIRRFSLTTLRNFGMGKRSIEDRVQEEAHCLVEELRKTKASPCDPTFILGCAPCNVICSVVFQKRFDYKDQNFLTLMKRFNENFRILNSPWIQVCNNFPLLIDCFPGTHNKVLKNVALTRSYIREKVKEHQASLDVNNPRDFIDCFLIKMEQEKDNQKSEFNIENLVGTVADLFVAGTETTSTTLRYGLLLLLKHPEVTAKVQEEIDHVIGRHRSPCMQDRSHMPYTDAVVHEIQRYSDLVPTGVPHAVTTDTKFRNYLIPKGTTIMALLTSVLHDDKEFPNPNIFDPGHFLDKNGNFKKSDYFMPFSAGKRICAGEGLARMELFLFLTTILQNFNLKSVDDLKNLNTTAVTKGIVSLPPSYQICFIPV
Experimental: as §1, §2

CYP3A4 [4] = molecular target: T2, CYP3A4; assay: Time-dependent inhibition study of CYP3A4 in HLMs; format: in vitro ADME
Experimental: (§6) To determine whether DHM could inhibit the activity of CYP3A4, CYP2E1 and CYP2D6 in a time-dependent manner, DHM (20 μM) was pre-incubated with HLMs (1 mg/mL) in the presence of an NADPH-generating system for 30 min at 37 °C. After incubation, an aliquot (20 μL) was transferred to another incubation tube (a final volume of 200 μL) containing an NADPH-generating system and probe substrates whose final concentrations were approximate to Km. Then, further incubations were performed to measure the residual activity. After being incubated for 10 and 30 min, the reactions were terminated by adding a 100 μL acetonitrile internal standard mix and then placed on ice; the corresponding metabolites was determined by HPLC.
To determine the KI and kinact values for the inactivation of CYP3A4, the incubations were conducted using higher probe substrate concentrations (approximately four-fold Km values) and various concentrations of DHM (0–50 μM) after different preincubation times (0–30 min), with a two-step incubation scheme, as described above.

CYP2E1 [5] = molecular target: T4, CYP2E1; assay: Time-dependent inhibition study of CYP2E1 in HLMs; format: in vitro ADME; conditions: DHM 20 μM, pre-incubation with HLM and NADPH for 30 min
Experimental: as §6

CYP2D6 [6] = molecular target: T5, CYP2D6; assay: Time-dependent inhibition study of CYP2D6 in HLMs; format: in vitro ADME; conditions: DHM 20 μM, pre-incubation with HLM and NADPH for 30 min
Experimental: as §6

[7] = set-up: method as in Zhang et al. [2007]; Tong et al. [2015]; conditions: rats, oral administration of 1564.8 mg/kg of Rattan Tea decoction; ref Zhang et al. [2007]; Tong et al. [2015]; cited from earlier work

T4 sequence (P05181 whole entry): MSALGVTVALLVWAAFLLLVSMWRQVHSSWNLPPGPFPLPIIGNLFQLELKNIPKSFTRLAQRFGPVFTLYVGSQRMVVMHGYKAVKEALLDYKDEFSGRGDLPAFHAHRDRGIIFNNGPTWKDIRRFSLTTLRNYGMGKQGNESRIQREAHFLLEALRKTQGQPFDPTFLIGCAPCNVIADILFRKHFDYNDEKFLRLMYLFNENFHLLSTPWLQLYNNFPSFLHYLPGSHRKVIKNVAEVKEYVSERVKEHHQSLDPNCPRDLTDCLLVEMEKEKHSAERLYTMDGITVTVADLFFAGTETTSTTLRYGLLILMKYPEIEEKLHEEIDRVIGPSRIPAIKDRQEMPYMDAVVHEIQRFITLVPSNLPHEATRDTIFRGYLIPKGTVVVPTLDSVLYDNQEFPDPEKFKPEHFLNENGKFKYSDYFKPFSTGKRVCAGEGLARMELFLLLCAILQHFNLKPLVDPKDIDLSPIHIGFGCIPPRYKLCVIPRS
T5 sequence (P10635 whole entry): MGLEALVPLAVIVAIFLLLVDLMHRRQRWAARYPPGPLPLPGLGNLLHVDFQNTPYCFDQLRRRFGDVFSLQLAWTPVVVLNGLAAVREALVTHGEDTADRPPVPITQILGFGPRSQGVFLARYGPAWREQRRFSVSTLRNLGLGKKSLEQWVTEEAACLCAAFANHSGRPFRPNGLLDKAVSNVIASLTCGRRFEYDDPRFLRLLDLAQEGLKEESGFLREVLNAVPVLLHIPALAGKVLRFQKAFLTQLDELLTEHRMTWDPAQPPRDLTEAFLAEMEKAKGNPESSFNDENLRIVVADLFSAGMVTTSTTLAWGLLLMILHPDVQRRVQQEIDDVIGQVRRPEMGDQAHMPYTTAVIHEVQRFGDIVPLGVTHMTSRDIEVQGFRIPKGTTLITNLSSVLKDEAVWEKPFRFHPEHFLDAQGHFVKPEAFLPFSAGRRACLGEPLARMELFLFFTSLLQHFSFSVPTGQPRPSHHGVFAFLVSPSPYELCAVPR
T2 sequence (P08684 whole entry): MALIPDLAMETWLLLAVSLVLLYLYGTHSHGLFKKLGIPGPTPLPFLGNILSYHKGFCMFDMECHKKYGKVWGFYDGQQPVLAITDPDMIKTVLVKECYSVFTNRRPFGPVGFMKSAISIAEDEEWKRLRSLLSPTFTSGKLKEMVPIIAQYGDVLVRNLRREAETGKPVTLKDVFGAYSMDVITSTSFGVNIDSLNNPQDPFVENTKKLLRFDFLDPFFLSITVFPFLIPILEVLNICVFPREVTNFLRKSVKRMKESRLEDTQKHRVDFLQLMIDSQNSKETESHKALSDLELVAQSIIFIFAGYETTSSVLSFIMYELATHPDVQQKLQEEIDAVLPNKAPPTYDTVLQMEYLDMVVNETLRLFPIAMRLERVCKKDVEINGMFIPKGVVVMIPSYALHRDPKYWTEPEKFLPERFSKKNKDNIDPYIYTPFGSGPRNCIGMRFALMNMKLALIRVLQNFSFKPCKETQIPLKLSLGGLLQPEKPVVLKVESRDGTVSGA
T7 sequence (P33261 whole entry): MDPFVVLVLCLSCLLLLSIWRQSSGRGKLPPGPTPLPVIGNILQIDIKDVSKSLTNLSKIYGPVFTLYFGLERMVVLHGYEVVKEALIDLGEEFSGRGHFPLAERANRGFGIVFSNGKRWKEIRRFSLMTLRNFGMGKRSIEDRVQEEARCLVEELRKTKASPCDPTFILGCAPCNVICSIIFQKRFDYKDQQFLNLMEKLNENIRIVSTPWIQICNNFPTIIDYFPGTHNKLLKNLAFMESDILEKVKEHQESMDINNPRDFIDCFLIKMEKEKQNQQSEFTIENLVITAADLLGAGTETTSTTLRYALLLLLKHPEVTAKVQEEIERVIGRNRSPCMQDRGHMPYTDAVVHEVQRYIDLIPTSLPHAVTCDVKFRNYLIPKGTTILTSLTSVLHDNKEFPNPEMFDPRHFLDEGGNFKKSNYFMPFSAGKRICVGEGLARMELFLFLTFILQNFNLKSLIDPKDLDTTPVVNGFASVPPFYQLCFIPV
T6 sequence (P11712 whole entry): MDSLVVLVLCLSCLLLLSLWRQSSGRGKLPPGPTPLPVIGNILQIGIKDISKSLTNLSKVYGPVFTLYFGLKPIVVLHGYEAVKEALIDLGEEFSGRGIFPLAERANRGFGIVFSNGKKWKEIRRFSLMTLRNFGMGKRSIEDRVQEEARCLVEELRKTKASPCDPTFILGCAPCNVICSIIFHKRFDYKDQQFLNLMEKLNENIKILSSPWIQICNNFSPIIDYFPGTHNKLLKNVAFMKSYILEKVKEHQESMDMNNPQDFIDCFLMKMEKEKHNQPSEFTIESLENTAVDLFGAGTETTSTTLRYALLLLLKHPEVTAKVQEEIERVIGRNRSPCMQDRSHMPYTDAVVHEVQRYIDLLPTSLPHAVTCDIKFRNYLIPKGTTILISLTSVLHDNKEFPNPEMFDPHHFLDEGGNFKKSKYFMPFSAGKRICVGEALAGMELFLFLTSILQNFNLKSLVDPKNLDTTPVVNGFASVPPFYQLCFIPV

## O=C1c2c(O)cc(O)cc2O[C@H](c2cc(O)c(O)c(O)c2)[C@H]1O [DHM, Dihydromyricetin]
CYP1A2
  Inhibition of CYP1A2 activity: did not inhibit
CYP3A4 [1]; DHM 0–100 μM, pooled HLMs
  IC50: 14.8 µM
CYP3A4 [1]; Lineweaver–Burk plots
  Manner of inhibition of CYP3A4: non-competitive
CYP3A4 [1]; human, pooled human liver microsomes, pH 7.4, probe testosterone (6β-hydroxylation), DHM 100 μM, pooled HLMs, read-out: CYP3A4 activity inhibited to % of control activity
  inhibition at 100 μM: 87.7%
CYP3A4 [1]; secondary Lineweaver–Burk plot, testosterone 20–100 μM, pooled HLM
  Ki: 6.06 µM
CYP2A6
  Inhibition of CYP2A6 activity: did not inhibit
CYP2E1 [2]; DHM 0–100 μM, pooled HLMs
  IC50: 25.7 µM
CYP2E1 [2]; Lineweaver–Burk plots
  Manner of inhibition of CYP2E1: competitive
CYP2E1 [2]; human, pooled human liver microsomes, pH 7.4, probe chlorzoxazone (6-hydroxylation), DHM 100 μM, pooled HLMs, read-out: CYP2E1 activity inhibited to % of control activity
  inhibition at 100 μM: 74.6%
CYP2E1 [2]; secondary Lineweaver–Burk plot, chlorzoxazone, DHM 0–50 μM, pooled HLM
  Ki: 9.24 µM
CYP2D6 [3]; DHM 0–100 μM, pooled HLMs
  IC50: 22.7 µM
CYP2D6 [3]; Lineweaver–Burk plots
  Manner of inhibition of CYP2D6: competitive
CYP2D6 [3]; human, pooled human liver microsomes, pH 7.4, probe dextromethorphan (O-demethylation), DHM 100 μM, pooled HLMs, read-out: CYP2D6 activity inhibited to % of control activity
  inhibition at 100 μM: 85.3%
CYP2D6 [3]; secondary Lineweaver–Burk plot, dextromethorphan 5–50 μM, DHM 0–50 μM, pooled HLM
  Ki: 10.5 µM
CYP2C9
  Inhibition of CYP2C9 activity: did not inhibit
CYP2C19
  Inhibition of CYP2C19 activity: did not inhibit
CYP2C8
  Inhibition of CYP2C8 activity: did not inhibit
CYP3A4 [4]; DHM 20 μM, pre-incubation with HLM and NADPH for 30 min
  Time-dependent inhibition: activity of CYP3A4 after pre-incubation: decreased with the incubation time
CYP3A4 [4]; human, human liver microsomes, DHM 0–50 μM, preincubation 0–30 min, non-linear regression, HLM
  KI (inactivation): 12.2 µM
CYP3A4 [4]; human, human liver microsomes, DHM 0–50 μM, preincubation 0–30 min, non-linear regression, HLM, read-out: Kinact for inactivation of CYP3A4 (converted)
  kinact: 0.00095 s⁻¹
CYP3A4 [4]; saturating concentration of DHM incubated with HLM, implied by Kinact
  CYP3A4 inactivated each minute: approximately 5.7%
CYP2E1 [5]
  Time-dependent inhibition: activity of CYP2E1 after pre-incubation: not affected
CYP2D6 [6]
  Time-dependent inhibition: activity of CYP2D6 after pre-incubation: not affected
[7]
  Cmax: 1700 ng/mL
